Legend:
Test in all cases: radiometric filter-binding kinase assay
AURKB (human) = AURKB (human) (UniProt Q96GD4)
BRSK1 (human) = BRSK1 (human) (UniProt Q8TDC3)
BTK (human) = BTK (human) (UniProt Q06187)
CAMKK2 (human) = CAMKK2 (human) (UniProt Q96RR4)
CSK (human) = CSK (human) (UniProt P41240)
CSNK1D (human) = CSNK1D (human) (UniProt P48730)
CaMK1 (human) = CaMK1 (human) (UniProt Q14012)
DYRK1A (human) = DYRK1A (human) (UniProt Q13627)
DYRK2 (human) = DYRK2 (human) (UniProt Q92630)
EPHA4 (human) = EPHA4 (human) (UniProt P54764)
EPHB2 (human) = EPHB2 (human) (UniProt P29323)
EPHB2 (human), sequence (P29323 whole entry, looked up): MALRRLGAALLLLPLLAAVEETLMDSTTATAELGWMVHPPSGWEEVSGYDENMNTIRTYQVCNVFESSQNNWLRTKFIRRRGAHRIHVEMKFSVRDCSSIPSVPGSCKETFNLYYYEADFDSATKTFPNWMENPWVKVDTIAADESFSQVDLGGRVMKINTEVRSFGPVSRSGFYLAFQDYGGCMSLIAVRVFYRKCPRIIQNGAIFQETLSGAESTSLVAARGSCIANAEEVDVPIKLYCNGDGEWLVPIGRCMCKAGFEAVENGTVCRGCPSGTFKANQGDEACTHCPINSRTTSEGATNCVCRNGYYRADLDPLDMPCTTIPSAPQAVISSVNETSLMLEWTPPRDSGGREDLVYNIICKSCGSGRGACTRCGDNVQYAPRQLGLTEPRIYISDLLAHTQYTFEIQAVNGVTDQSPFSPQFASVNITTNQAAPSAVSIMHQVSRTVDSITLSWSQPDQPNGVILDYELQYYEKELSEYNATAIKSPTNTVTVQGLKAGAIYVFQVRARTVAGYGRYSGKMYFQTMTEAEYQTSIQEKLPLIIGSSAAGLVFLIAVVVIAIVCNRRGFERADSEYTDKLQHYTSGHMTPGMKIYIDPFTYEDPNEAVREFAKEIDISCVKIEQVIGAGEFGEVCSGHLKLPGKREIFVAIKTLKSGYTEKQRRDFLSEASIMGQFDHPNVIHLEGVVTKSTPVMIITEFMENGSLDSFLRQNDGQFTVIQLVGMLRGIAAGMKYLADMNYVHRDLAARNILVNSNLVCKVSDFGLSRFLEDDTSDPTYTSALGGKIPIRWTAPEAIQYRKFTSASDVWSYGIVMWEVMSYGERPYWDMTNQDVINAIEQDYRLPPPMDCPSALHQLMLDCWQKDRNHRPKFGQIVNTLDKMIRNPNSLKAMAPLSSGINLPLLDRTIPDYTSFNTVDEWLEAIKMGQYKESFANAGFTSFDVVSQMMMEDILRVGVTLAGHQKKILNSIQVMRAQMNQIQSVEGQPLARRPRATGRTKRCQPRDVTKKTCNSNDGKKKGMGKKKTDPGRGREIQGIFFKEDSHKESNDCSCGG

EPHB3 (human) = EPHB3 (human) (UniProt P54753)
HIPK2 (human) = HIPK2 (human) (UniProt Q9H2X6)
IGF1R (human) = IGF1R (human) (UniProt P08069)
IKBKB (human) = IKBKB (human) (UniProt O14920)
IKBKE (human) = IKBKE (human) (UniProt Q14164)
MAP2K2 (human) = MAP2K2 (human) (UniProt P36507)
MAP3K11 (human) = MAP3K11 (human) (UniProt Q16584)
MAP3K7 TAB1 (human) = MAP3K7 TAB1 (human) (UniProt Q15750+O43318)
MAPK12 (human) = MAPK12 (human) (UniProt P53778)
MAPK14 (human) = MAPK14 (human) (UniProt Q16539)
MAPK14 (human), sequence (Q16539 whole entry, looked up): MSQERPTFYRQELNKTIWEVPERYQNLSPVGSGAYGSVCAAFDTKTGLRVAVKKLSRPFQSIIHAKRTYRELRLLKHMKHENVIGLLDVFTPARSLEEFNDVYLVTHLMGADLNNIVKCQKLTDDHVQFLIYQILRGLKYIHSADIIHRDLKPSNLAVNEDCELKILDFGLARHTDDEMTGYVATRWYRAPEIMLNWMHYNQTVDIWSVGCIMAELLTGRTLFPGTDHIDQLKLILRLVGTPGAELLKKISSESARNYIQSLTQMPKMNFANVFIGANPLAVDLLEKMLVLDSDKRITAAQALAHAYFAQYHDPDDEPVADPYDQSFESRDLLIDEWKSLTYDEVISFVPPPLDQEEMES

MAPK15 (human) = MAPK15 (human) (UniProt Q8TD08)
MAPK8 (human) = MAPK8 (human) (UniProt P45983)
MAPK9 (human) = MAPK9 (human) (UniProt P45984)
MAPKAPK2 (human) = MAPKAPK2 (human) (UniProt P49137)
MAPKAPK2 (human), sequence (P49137 whole entry, looked up): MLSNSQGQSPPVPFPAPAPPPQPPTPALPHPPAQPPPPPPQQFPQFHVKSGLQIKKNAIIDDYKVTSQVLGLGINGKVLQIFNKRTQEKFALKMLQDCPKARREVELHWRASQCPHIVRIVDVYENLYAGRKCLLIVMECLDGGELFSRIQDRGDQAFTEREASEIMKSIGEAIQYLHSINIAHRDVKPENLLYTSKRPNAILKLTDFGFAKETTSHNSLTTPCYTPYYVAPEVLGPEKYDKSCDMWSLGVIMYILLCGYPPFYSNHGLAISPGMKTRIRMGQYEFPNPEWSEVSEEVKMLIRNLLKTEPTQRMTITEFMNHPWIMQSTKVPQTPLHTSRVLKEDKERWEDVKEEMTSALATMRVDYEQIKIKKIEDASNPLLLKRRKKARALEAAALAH

MAPKAPK5 (human) = MAPKAPK5 (human) (UniProt Q8IW41)
MAPKAPK5 (human), sequence (Q8IW41 whole entry, looked up): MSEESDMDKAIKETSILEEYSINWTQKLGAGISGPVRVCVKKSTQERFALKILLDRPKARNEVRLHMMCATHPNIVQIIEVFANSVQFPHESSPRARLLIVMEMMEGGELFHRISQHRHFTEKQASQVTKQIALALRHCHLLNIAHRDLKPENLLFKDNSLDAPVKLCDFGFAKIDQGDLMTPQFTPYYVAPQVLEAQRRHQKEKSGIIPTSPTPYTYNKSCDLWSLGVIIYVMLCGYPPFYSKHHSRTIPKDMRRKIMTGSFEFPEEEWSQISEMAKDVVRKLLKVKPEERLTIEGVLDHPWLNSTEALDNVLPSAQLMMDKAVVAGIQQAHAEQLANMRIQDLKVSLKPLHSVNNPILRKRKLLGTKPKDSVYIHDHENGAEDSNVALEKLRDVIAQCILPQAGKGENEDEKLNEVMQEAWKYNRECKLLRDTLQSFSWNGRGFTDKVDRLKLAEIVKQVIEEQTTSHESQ

MELK (human) = MELK (human) (UniProt Q14680)
MELK (human), sequence (Q14680 whole entry, looked up): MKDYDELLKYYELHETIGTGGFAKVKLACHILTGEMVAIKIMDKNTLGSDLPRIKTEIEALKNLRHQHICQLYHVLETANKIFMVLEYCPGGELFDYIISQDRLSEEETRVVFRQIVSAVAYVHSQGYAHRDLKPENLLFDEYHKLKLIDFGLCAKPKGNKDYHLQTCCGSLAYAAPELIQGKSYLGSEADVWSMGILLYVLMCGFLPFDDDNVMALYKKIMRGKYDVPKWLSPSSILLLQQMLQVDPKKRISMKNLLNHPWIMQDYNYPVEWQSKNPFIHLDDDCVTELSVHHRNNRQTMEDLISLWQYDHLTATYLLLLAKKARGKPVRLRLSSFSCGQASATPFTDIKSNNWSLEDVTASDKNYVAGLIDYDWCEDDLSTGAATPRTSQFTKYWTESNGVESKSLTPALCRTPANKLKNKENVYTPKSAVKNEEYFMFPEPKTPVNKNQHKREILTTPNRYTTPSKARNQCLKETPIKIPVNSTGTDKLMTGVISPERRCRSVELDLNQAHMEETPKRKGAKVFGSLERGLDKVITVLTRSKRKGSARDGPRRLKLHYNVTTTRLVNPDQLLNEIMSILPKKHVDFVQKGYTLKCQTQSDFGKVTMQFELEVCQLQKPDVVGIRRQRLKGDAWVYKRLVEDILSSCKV

MINK1 (human) = MINK1 (human) (UniProt Q8N4C8)
MKNK2 (human) = MKNK2 (human) (UniProt Q9HBH9)
PAK4 (human) = PAK4 (human) (UniProt O96013)
PAK4 (human), sequence (O96013 whole entry, looked up): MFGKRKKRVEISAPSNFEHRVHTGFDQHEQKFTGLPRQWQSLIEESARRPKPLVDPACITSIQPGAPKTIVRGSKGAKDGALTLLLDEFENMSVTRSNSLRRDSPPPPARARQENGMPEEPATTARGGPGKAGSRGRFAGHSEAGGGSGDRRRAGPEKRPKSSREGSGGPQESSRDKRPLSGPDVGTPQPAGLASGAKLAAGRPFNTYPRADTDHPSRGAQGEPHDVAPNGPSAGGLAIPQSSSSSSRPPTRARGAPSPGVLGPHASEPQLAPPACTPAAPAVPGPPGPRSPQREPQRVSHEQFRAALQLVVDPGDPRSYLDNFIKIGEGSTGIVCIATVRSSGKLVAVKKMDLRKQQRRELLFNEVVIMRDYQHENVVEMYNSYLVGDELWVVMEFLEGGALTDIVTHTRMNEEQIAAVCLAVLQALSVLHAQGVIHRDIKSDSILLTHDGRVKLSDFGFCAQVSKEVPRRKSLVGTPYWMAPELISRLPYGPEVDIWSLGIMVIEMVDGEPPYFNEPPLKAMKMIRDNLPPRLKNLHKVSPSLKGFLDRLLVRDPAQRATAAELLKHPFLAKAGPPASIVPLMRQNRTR

PAK7 (human) = PAK7 (human) (UniProt Q9P286)
PAK7 (human), sequence (Q9P286 whole entry, looked up): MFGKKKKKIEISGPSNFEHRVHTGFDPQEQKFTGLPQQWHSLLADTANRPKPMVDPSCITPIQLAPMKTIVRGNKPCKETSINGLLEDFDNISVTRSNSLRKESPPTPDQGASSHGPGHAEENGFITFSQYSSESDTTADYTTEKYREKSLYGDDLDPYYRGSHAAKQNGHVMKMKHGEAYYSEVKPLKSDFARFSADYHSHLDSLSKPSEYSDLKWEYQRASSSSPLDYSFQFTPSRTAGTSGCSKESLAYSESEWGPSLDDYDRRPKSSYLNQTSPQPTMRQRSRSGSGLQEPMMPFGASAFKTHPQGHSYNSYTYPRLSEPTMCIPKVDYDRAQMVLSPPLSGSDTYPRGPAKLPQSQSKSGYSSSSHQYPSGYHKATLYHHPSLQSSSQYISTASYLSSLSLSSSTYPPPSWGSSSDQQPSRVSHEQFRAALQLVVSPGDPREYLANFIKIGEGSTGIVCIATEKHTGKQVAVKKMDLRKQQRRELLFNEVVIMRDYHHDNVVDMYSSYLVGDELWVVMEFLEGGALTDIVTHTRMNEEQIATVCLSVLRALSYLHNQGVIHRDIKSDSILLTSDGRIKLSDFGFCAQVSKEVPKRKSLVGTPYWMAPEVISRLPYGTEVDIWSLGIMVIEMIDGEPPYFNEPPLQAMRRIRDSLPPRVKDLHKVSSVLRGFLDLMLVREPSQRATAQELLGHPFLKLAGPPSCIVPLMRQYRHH

PIM1 (human) = PIM1 (human) (UniProt P11309)
PRKACA (human) = PRKACA (human) (UniProt P17612)
RIPK2 (human) = RIPK2 (human) (UniProt O43353)
RIPK2 (human), sequence (O43353 whole entry, looked up): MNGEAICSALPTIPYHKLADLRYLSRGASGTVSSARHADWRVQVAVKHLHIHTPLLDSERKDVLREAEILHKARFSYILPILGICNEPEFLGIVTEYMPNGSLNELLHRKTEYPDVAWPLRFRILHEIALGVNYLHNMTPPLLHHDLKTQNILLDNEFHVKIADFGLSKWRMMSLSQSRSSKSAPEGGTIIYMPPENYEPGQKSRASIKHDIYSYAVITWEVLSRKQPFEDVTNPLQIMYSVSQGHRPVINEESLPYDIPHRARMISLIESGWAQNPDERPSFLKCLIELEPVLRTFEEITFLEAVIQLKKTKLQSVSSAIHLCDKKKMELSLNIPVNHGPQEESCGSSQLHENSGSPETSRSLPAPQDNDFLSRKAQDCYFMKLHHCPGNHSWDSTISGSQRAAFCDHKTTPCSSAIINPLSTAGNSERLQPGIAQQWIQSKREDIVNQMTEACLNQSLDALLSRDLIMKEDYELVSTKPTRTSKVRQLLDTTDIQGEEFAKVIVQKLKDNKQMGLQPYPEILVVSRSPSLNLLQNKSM

YES1 (human) = YES1 (human) (UniProt P07947)

Question: Which residual activity (AURKB (human); compound 0.1 µM) does the source give for `O=C(NCCCNc1nc(Nc2cccc(CN3CCOCC3)c2)ncc1C1CC1)C1CCC1` here?
Answer: 80%

Question: And the residual activity (AURKB (human); compound 1.0 µM)?
Answer: 54%

Question: What about the residual activity (BRSK1 (human); compound 0.1 µM) of the same compound?
Answer: 99%

Question: And the residual activity (BRSK1 (human); compound 1.0 µM)?
Answer: 82%

Question: And the residual activity (BTK (human); compound 0.1 µM)?
Answer: 89%

Question: What about the residual activity (BTK (human); compound 1.0 µM) of the same compound?
Answer: 77%

Question: What about the residual activity (CAMKK2 (human); compound 0.1 µM) of the same compound?
Answer: 58%

Question: What about the residual activity (CAMKK2 (human); compound 1.0 µM) of the same compound?
Answer: 21%

Question: What about the residual activity (CSK (human); compound 0.1 µM) of the same compound?
Answer: 98%

Question: What about the residual activity (CSK (human); compound 1.0 µM) of the same compound?
Answer: 112%

Question: And the residual activity (CSNK1D (human); compound 0.1 µM)?
Answer: 99%

Question: What about the residual activity (CSNK1D (human); compound 1.0 µM) of the same compound?
Answer: 66%

Question: And the residual activity (CaMK1 (human); compound 0.1 µM)?
Answer: 104%

Question: And the residual activity (CaMK1 (human); compound 1.0 µM)?
Answer: 101%

Question: What about the residual activity (DYRK1A (human); compound 0.1 µM) of the same compound?
Answer: 99%

Question: What about the residual activity (DYRK1A (human); compound 1.0 µM) of the same compound?
Answer: 106%

Question: What about the residual activity (DYRK2 (human); compound 0.1 µM) of the same compound?
Answer: 92%

Question: What about the residual activity (DYRK2 (human); compound 1.0 µM) of the same compound?
Answer: 101%

Question: What about the residual activity (EPHA4 (human); compound 0.1 µM) of the same compound?
Answer: 103%

Question: And the residual activity (EPHA4 (human); compound 1.0 µM)?
Answer: 114%

Question: And the residual activity (EPHB2 (human); compound 0.1 µM)?
Answer: 88%

Question: What about the residual activity (EPHB2 (human); compound 1.0 µM) of the same compound?
Answer: 78%

Question: And the residual activity (EPHB3 (human); compound 0.1 µM)?
Answer: 110%

Question: What about the residual activity (EPHB3 (human); compound 1.0 µM) of the same compound?
Answer: 101%

Question: And the residual activity (HIPK2 (human); compound 0.1 µM)?
Answer: 95%

Question: And the residual activity (HIPK2 (human); compound 1.0 µM)?
Answer: 95%

Question: And the residual activity (IGF1R (human); compound 0.1 µM)?
Answer: 90%

Question: What about the residual activity (IGF1R (human); compound 1.0 µM) of the same compound?
Answer: 105%

Question: And the residual activity (IKBKB (human); compound 0.1 µM)?
Answer: 115%

Question: And the residual activity (IKBKB (human); compound 1.0 µM)?
Answer: 122%

Question: And the residual activity (IKBKE (human); compound 0.1 µM)?
Answer: 34%

Question: What about the residual activity (IKBKE (human); compound 1.0 µM) of the same compound?
Answer: 23%

Question: And the residual activity (MAP2K2 (human); compound 0.1 µM)?
Answer: 106%

Question: And the residual activity (MAP2K2 (human); compound 1.0 µM)?
Answer: 75%

Question: And the residual activity (MAP3K11 (human); compound 0.1 µM)?
Answer: 54%

Question: And the residual activity (MAP3K11 (human); compound 1.0 µM)?
Answer: 8%

Question: And the residual activity (MAP3K7 TAB1 (human); compound 0.1 µM)?
Answer: 96%

Question: And the residual activity (MAP3K7 TAB1 (human); compound 1.0 µM)?
Answer: 57%

Question: And the residual activity (MAPK12 (human); compound 0.1 µM)?
Answer: 88%

Question: What about the residual activity (MAPK12 (human); compound 1.0 µM) of the same compound?
Answer: 85%

Question: What about the residual activity (MAPK14 (human); compound 0.1 µM) of the same compound?
Answer: 100%

Question: What about the residual activity (MAPK14 (human); compound 1.0 µM) of the same compound?
Answer: 107%

Question: And the residual activity (MAPK15 (human); compound 0.1 µM)?
Answer: 81%

Question: And the residual activity (MAPK15 (human); compound 1.0 µM)?
Answer: 34%

Question: What about the residual activity (MAPK8 (human); compound 0.1 µM) of the same compound?
Answer: 93%

Question: What about the residual activity (MAPK8 (human); compound 1.0 µM) of the same compound?
Answer: 115%

Question: And the residual activity (MAPK9 (human); compound 0.1 µM)?
Answer: 97%

Question: And the residual activity (MAPK9 (human); compound 1.0 µM)?
Answer: 106%

Question: And the residual activity (MAPKAPK2 (human); compound 0.1 µM)?
Answer: 106%

Question: And the residual activity (MAPKAPK2 (human); compound 1.0 µM)?
Answer: 114%

Question: What about the residual activity (MAPKAPK5 (human); compound 0.1 µM) of the same compound?
Answer: 104%

Question: What about the residual activity (MAPKAPK5 (human); compound 1.0 µM) of the same compound?
Answer: 122%

Question: What about the residual activity (MELK (human); compound 0.1 µM) of the same compound?
Answer: 43%

Question: What about the residual activity (MELK (human); compound 1.0 µM) of the same compound?
Answer: 26%

Question: What about the residual activity (MINK1 (human); compound 0.1 µM) of the same compound?
Answer: 123%

Question: What about the residual activity (MINK1 (human); compound 1.0 µM) of the same compound?
Answer: 103%

Question: What about the residual activity (MKNK2 (human); compound 0.1 µM) of the same compound?
Answer: 80%

Question: What about the residual activity (MKNK2 (human); compound 1.0 µM) of the same compound?
Answer: 50%

Question: And the residual activity (PAK4 (human); compound 0.1 µM)?
Answer: 100%

Question: What about the residual activity (PAK4 (human); compound 1.0 µM) of the same compound?
Answer: 79%

Question: And the residual activity (PAK7 (human); compound 0.1 µM)?
Answer: 95%

Question: What about the residual activity (PAK7 (human); compound 1.0 µM) of the same compound?
Answer: 88%

Question: And the residual activity (PIM1 (human); compound 0.1 µM)?
Answer: 114%

Question: And the residual activity (PIM1 (human); compound 1.0 µM)?
Answer: 120%

Question: What about the residual activity (PRKACA (human); compound 0.1 µM) of the same compound?
Answer: 90%

Question: What about the residual activity (PRKACA (human); compound 1.0 µM) of the same compound?
Answer: 100%

Question: And the residual activity (RIPK2 (human); compound 0.1 µM)?
Answer: 109%

Question: And the residual activity (RIPK2 (human); compound 1.0 µM)?
Answer: 112%

Question: What about the residual activity (YES1 (human); compound 0.1 µM) of the same compound?
Answer: 113%

Question: And the residual activity (YES1 (human); compound 1.0 µM)?
Answer: 71%

— the kinase profiling compilation of Christmann-Franck et al. (2016)
